In this experiment the target is Hepatitis C virus serine protease, NS3/NS4A (Hepatitis C virus, UniProt A3EZI9+D2K2A8). Briefly: Inhibitory concentration evaluated against NS3/4A protease. It counts as protein-complex assay, Hepacivirus hominis.
Hepatitis C virus serine protease, NS3/NS4A, sequence (D2K2A8 whole entry): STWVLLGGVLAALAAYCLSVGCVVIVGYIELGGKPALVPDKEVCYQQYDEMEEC
Hepatitis C virus serine protease, NS3/NS4A, sequence (A3EZI9 whole entry): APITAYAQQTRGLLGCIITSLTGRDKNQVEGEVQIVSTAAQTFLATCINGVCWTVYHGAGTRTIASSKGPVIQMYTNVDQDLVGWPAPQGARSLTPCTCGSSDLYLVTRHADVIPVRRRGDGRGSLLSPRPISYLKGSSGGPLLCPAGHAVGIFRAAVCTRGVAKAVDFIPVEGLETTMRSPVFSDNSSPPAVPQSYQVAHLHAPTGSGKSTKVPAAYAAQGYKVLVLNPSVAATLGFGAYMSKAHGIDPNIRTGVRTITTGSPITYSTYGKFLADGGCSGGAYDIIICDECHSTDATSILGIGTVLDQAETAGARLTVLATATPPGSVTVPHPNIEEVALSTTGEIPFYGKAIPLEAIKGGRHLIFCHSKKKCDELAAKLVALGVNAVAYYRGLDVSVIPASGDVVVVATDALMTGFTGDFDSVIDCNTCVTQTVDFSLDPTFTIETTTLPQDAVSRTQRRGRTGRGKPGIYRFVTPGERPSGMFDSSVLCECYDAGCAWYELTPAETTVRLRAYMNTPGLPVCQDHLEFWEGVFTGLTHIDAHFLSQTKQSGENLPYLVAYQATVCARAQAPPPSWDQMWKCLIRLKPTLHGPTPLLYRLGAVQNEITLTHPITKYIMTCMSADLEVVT
As for `CC(C)C[C@H](NC(=O)C(Cc1ccccc1)c1ccccc1)C(=O)N[C@@H](CC(F)F)C(=O)C(=O)O` (some centres not stated), the IC50 – broadly, the concentration that inhibits the measured activity by half – is > 30 µM.

Regarding `CC(C)C[C@H](NC(=O)[C@@H](O)c1ccccc1)C(=O)N[C@@H](CC(F)F)C(=O)C(=O)O`, the IC50 was > 100 µM.

On to `CC(C)C[C@H](NC(=O)CC(c1ccccc1)c1ccccc1)C(=O)N[C@@H](CC(F)F)C(=O)C(=O)O`, for which the IC50 was > 200 µM.

Turning to `COc1ccc(C(=O)N[C@@H](CC(C)C)C(=O)N[C@@H](CC(F)F)C(=O)C(=O)O)c(OC)c1OC`, the IC50 was > 200 µM.

Consider `CC(C)C[C@H](NC(=O)[C@H](O)c1ccc(C(F)(F)F)cc1)C(=O)N[C@@H](CC(F)F)C(=O)C(=O)O`, for which the IC50 came out at 28 µM.

On to `COc1ccc(C(Oc2ccccc2)C(=O)N[C@@H](CC(C)C)C(=O)N[C@@H](CC(F)F)C(=O)C(=O)O)cc1` (some centres not stated), for which the IC50 was found to be 18 µM.

For the compound `CC(C)C[C@H](NC(=O)c1cccc(Oc2ccccc2)c1)C(=O)N[C@@H](CC(F)F)C(=O)C(=O)O`, the IC50 is > 200 µM.

`CC(C)C[C@H](NC(=O)[C@H](O)c1ccccc1Cl)C(=O)N[C@@H](CC(F)F)C(=O)C(=O)O` gave an IC50 of 41 µM.

As for `CC(C)C[C@H](NC(=O)[C@H](O)c1cccs1)C(=O)N[C@@H](CC(F)F)C(=O)C(=O)O`, the IC50 came to 18 µM. Compared with the last compound, the IC50 is about 2.3-fold lower.

Consider `CC(C)C[C@H](NC(=O)C(Sc1ccccc1)c1ccccc1)C(=O)N[C@@H](CC(F)F)C(=O)C(=O)O` (some centres not stated), for which the midpoint of inhibition, the IC50, lay at 7 µM.

Take `CC(C)C[C@H](NC(=O)[C@@H](NC(=O)OC(C)(C)C)C1CCCC1)C(=O)N[C@@H](CC(F)F)C(=O)C(=O)O`: half-maximal inhibition (IC50) was put at 0.38 µM.

The compound `CC(C)C[C@H](NC(=O)[C@H](O)c1ccc(Cl)cc1)C(=O)N[C@@H](CC(F)F)C(=O)C(=O)O` registered an IC50 of 13 µM.

`CC(C)C[C@H](NC(=O)Cn1c(-c2ccccc2)nc2ccccc21)C(=O)N[C@@H](CC(F)F)C(=O)C(=O)O`: the IC50 was > 200 µM.

Consider `CC(C)C[C@H](NC(=O)[C@H](O)c1ccccc1)C(=O)N[C@@H](CC(F)F)C(=O)C(=O)O`, for which the midpoint of inhibition, the IC50, lay at 3 µM. This lies in the single-digit micromolar range.

With `CC(C)C[C@H](NC(=O)[C@H](O)C1CCCCC1)C(=O)N[C@@H](CC(F)F)C(=O)C(=O)O`, the IC50 was 7 µM.

`COc1ccc([C@@H](O)C(=O)N[C@@H](CC(C)C)C(=O)N[C@@H](CC(F)F)C(=O)C(=O)O)cc1` returned an IC50 of 13 µM.

On to `CC(C)C[C@H](NC(=O)Cn1nc(-c2ccccc2)c2ccccc2c1=O)C(=O)N[C@@H](CC(F)F)C(=O)C(=O)O`, for which the IC50 was > 200 µM.

These data come from ChEMBL document CHEMBL1136041, “Capped dipeptide alpha-ketoacid inhibitors of the HCV NS3 protease” (Bioorg Med Chem Lett, 2002).
